Assay results from US8673908B2, “Kynurenine production inhibitor” (Kyowa Hakko Kirin Co., Ltd., priority 2008, dated 2014).

The molecules below were run on kynurenine production in IFN-γ-treated KATO-III cells (assay: Inhibitory activity on kynurenine production (Test Example 1)). Details: Homo sapiens, IFN-γ treatment, culture for 96 hours, read-out: IC50 value, inhibition of kynurenine production.
Type: cell-based
Experimental: This assay was performed according to a method modified from the method described in the Journal of Biological Chemistry (J. Biol. Chem.), vol. 263, pp. 2041-2048 (1988). Culture of KATO-III derived from human gastric cancer cells was performed by use of RPMI 1640 (GIBCO, 11875) supplemented with 10 vol % FBS (GIBCO, 10091-148, lot. 665285). 1 μL of a DMSO solution of the test substance was diluted with 199 μL of the culture medium, and the diluted solution was added to wells of a 384 well plate (10 μL/well). Then, IFN-γ (Sigma, 1-3265) was added to the culture medium so that the concentration of IFN-γ was 31.25 ng/mL, and the KATO-III cells were suspended at 50,000 cells/ml, in the culture medium. 40 μL of the suspension was added to each well (2,000 cells/well), and culture of the KATO-III cells was performed at 37° C. under a 5% CO2 atmosphere for 96 hours. The final concentration of DMSO was limited to 0.1 vol % or less so that DMSO itself might not affect the kynurenine concentration measured by this assay. After the culture, 10 μL of a 30 w/v % aqueous trichloroacetic acid solution was added to each well, and incubation was performed at 65° C. for 30 minutes. The plate was centrifuged at 2,500×g for 5 minutes, and then 15 μL of the supernatant in each well was transferred into another 384 well plate. To each of the transferred supernatants, 15 μL of a 2 w/v % solution of p-dimethylaminobenzaldehyde in acetic acid was added, incubation was performed at 65° C. for 20 minutes, and then the absorbance at 480 nm was measured.
[formula] Sample: the absorbance value of the well to which a DMSO solution containing the test substance was added and in which cells were treated with IFN-γ. Blank: the absorbance value of the well to which only DMSO, not the test substance was added and in which cells were treated with IFN-γ. Control: the absorbance value of the well to which only DMSO, not the test substance was added and in which cells were not treated with IFN-γ.
In this assay, expression of IDO in KATO-III cells is induced by IFN-γ treatment and then kynurenine in the culture medium is quantified. It is known that the kynurenine concentration in a culture medium increases in proportion to the enzymatic activity of intracellular IDO (for example, the Journal of Biological Chemistry (J. Biol. Chem.), vol. 263, pp. 2041-2048 (1988)). […] It is known that kynurenine production is inhibited by IDO inhibitors (for example, the Journal of Clinical Investigation (J. Clin. Invest.), vol. 117, No. 5, pp. 1147-1154 […]), and thus it is expected that Compound (I) also has an inhibitory effect on IDO.
`O=S(=O)(Nc1nc2ccccc2nc1OC(c1ccc(N2CCCC2)nc1)C(F)(F)F)c1ccccc1Cl` (centres unmarked) [Compound 93, 2-chloro-N-{3-{2,2,2-trifluoro-1-[6-(pyrrolidin-1-yl)-pyridin-3-yl]ethoxy}quinoxalin-2-yl}benzenesulfonamide] showed an IC50 of under 1 µM. Work on `CCCS(=O)(=O)Nc1nc2ccccc2nc1OC(c1cccnc1)C1(F)CCOCC1` (centres unmarked) [Compound 94, N-{3-[4-fluorotetrahydropyran-4-yl(pyridin-3-yl)methoxy]-quinoxalin-2-yl}propane-1-sulfonamide] yielded an IC50 of under 1 µM. In the case of `Cn1cc(C(Oc2nc3ccccc3nc2NS(=O)(=O)c2cccc(Cl)c2Cl)C(F)(F)F)cn1` (centres unmarked) [Compound 96, 2,3-dichloro-N-{3-[2,2,2-trifluoro-1-(1-methyl-1H-pyrazol-4-yl)ethoxy]quinoxalin-2-yl}benzenesulfonamide], the IC50 is reported as under 1 µM. `Cn1cncc1C(Oc1nc2ccccc2nc1NS(=O)(=O)c1cccc(Cl)c1Cl)C(F)(F)F` (centres unmarked) [Compound 97, 2,3-dichloro-N-{3-[2,2,2-trifluoro-1-(1-methyl-1H-imidazol-5-yl)ethoxy]quinoxalin-2-yl}benzenesulfonamide] gave an IC50 of under 1 µM. `O=S(=O)(Nc1nc2ccccc2nc1OC(c1cncs1)C(F)(F)F)c1cccc(Cl)c1Cl` (centres unmarked) [Compound 98, 2,3-dichloro-N-{3-[2,2,2-trifluoro-1-(thiazol-5-yl)ethoxy]-quinoxalin-2-yl}benzenesulfonamide] showed an IC50 of under 1 µM. For `O=S(=O)(Nc1nc2ccccc2nc1OC(c1nccs1)C(F)(F)F)c1cccc(Cl)c1Cl` (centres unmarked) [Compound 99, 2,3-dichloro-N-{3-[2,2,2-trifluoro-1-(thiazol-2-yl)ethoxy]-quinoxalin-2-yl}benzenesulfonamide], the IC50 was under 1 µM. Work on `O=S(=O)(Nc1nc2ccccc2nc1OC(c1cccs1)C(F)(F)F)c1cccc(Cl)c1Cl` (centres unmarked) [Compound 100, 2,3-dichloro-N-{3-[2,2,2-trifluoro-1-(thiophen-2-yl)-ethoxy]quinoxalin-2-yl}benzenesulfonamide] yielded an IC50 of under 1 µM. Molecule `O=S(=O)(Nc1nc2ccccc2nc1OC(c1ccsc1)C(F)(F)F)c1cccc(Cl)c1Cl` (centres unmarked) [Compound 101, 2,3-dichloro-N-{3-[2,2,2-trifluoro-1-(thiophen-3-yl)-ethoxy]quinoxalin-2-yl}benzenesulfonamide] has an IC50 of under 1 µM. Work on `O=S(=O)(Nc1nc2ccccc2nc1OC(C1CCCCC1)C(F)(F)F)c1cccc(Cl)c1Cl` (centres unmarked) [Compound 102, 2,3-dichloro-N-[3-(1-cyclohexyl-2,2,2-trifluoroethoxy)-quinoxalin-2-yl]benzenesulfonamide] yielded an IC50 of under 1 µM. Molecule `Cn1c(C(Oc2nc3ccccc3nc2NS(=O)(=O)c2cccc(Cl)c2Cl)C(F)(F)F)cc2ccccc21` (centres unmarked) [Compound 103, 2,3-dichloro-N-{3-[2,2,2-trifluoro-1-(1-methyl-1H-indol-2-yl)ethoxy]quinoxalin-2-yl}benzenesulfonamide] has an IC50 of under 1 µM. `O=S(=O)(Nc1nc2ccccc2nc1OC(c1cc2ccccc2o1)C(F)(F)F)c1ccccc1Cl` (centres unmarked) [Compound 104, 2-chloro-N-{3-[2,2,2-trifluoro-1-(benzofuran-2-yl)ethoxy]-quinoxalin-2-yl}benzenesulfonamide] gave an IC50 of under 1 µM. `Cc1nc(C)c(C(Oc2nc3ccccc3nc2NS(=O)(=O)c2ccccc2Cl)C(F)(F)F)s1` (centres unmarked) [Compound 106, 2-chloro-N-{3-[2,2,2-trifluoro-1-(2,4-dimethylthiazol-5-yl)ethoxy]quinoxalin-2-yl}benzenesulfonamide] showed an IC50 of under 1 µM. With `Cc1ncsc1C(Oc1nc2ccccc2nc1NS(=O)(=O)c1ccccc1Cl)C(F)(F)F` (centres unmarked) [Compound 107, 2-chloro-N-{3-[2,2,2-trifluoro-1-(4-methylthiazol-5-yl)-ethoxy]quinoxalin-2-yl}benzenesulfonamide] the IC50 was under 1 µM. Molecule `CCn1cncc1C(Oc1nc2ccccc2nc1NS(=O)(=O)c1ccccc1Cl)C(F)(F)F` (centres unmarked) [Compound 108, 2-chloro-N-{3-[2,2,2-trifluoro-1-(1-ethyl-1H-imidazol-5-yl)ethoxy]quinoxalin-2-yl}benzenesulfonamide] has an IC50 of under 1 µM.
